This is an account of results in patent publication US11555041B2, “Bridged bicyclic inhibitors of menin-MLL and methods of use” (Kura Oncology, Inc., priority 2016, dated 2023).

Molecules are shown by their SMILES.

For this assay, the target named is T1, menin-MLL interaction (Menin MLL 4-43) (Homo sapiens, UniProt O00255).
T1 sequence (O00255 1-610): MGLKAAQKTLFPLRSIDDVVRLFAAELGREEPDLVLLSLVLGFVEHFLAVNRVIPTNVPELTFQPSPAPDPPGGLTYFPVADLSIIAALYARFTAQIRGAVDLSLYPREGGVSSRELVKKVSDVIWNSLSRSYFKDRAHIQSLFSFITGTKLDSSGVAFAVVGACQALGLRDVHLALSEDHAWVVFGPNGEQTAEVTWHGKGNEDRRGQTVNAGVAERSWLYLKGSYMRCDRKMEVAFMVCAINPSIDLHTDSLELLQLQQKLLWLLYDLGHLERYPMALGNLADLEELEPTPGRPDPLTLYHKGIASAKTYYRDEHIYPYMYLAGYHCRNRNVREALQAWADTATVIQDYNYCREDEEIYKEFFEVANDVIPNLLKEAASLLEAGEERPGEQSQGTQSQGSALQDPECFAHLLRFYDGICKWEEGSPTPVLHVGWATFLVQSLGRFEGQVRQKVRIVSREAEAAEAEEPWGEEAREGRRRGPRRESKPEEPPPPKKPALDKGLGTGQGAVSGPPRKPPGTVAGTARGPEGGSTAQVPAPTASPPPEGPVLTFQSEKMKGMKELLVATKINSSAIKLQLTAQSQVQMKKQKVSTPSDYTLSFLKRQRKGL
Put plainly: Fluorescence polarization (FP) competition assay. Particulars: fluorescence polarization assay; read-out: Menin MLL 4-43 IC50. The format is binding. For orientation: Polarisation of emitted light reports the rotation of a fluorescent probe.
On to `CC[C@@H](N)C(=O)NC12CC(Cn3c(C#N)cc4c(C)c(CN5CCC(Nc6ncnc7sc(CC(F)(F)F)cc67)CC5)ccc43)(C1)C2` [Compound 71], for which the IC50 is less than 50 nM.
The same measure for `Cc1c(CN2CCC(Nc3ncnc4sc(CC(F)(F)F)cc34)CC2)ccc2c1cc(C#N)n2CC12CC(C(=O)NCCN)(C1)C2` [Compound 37]: less than 50 nM; for `C=CC(=O)NC12CC(CCn3c(C#N)cc4c(C)c(CN5CCC(Nc6ncnc7sc(CC(F)(F)F)cc67)CC5)ccc43)(C1)C2` [Compound 14]: 250 to 1000 nM.
In the case of `CC(=O)N[C@H]1C[C@H](Cn2c(C#N)cc3c(C)c(CN4CCC(Nc5ncnc6sc(CC(F)(F)F)cc56)CC4)ccc32)C1` [Compound 32] it was 50 to 250 nM; in that of `CC(=O)NC12CC(Cn3c(C#N)cc4c(C)c(CN5CCC(Nc6nc(C)nc7sc(CC(F)(F)F)cc67)CC5)ccc43)(C1)C2` [Compound 84], less than 50 nM; in that of `CCC(=O)NC12CC(Cn3c(C#N)cc4c(C)c(CN5CCC(Nc6nc(N)nc7sc(CC(F)(F)F)cc67)CC5)ccc43)(C1)C2` [Compound 54], less than 50 nM.
Regarding `Cc1c(CN2CCC(Nc3ncnc4sc(CC(F)(F)F)cc34)CC2)ccc2c1cc(C#N)n2CC12CC(C(=O)O)(C1)C2` [Compound 20], the half-maximal inhibitory concentration (IC50) was more than 1000 nM.
For the molecule `Cc1c(CN2CCC(Nc3ncnc4sc(CC(F)(F)F)cc34)CC2)ccc2c1cc(C#N)n2CC12CC(NC=O)(C1)C2` [Compound 15], the IC50 is less than 50 nM.
The same measure for `Cc1c(CN2CCC(Nc3ncnc4sc(CC(F)(F)F)cc34)CC2)ccc2c1cc(C#N)n2CC12CC(NC(=O)C(F)(F)F)(C1)C2` [Compound 6]: 250 to 1000 nM.
The same measure for `Cc1c(CN2CCC(Nc3ncnc4sc(CC(F)(F)F)cc34)CC2)ccc2c1cc(C#N)n2CC12CC(NC(=O)CN(C)C)(C1)C2` [Compound 40]: less than 50 nM; for `CCC(=O)NC12CC(Cn3c(C#N)cc4c(C)c(CN5CCC(Nc6nc(NC)nc7sc(CC(F)(F)F)cc67)CC5)ccc43)(C1)C2` [Compound 86]: less than 50 nM; for `CNCC(=O)NC12CC(Cn3c(C#N)cc4c(C)c(CN5CCC(Nc6ncnc7sc(CC(F)(F)F)cc67)CC5)ccc43)(C1)C2` [Compound 48]: less than 50 nM.
`Cc1c(CN2CCC(Nc3ncnc4sc(CC(F)(F)F)cc34)CC2)ccc2c1cc(C#N)n2CC12CC(NC(=O)c3cnc[nH]3)(C1)C2` [Compound 38]: the IC50 fell in the range of 50 to 250 nM.
The same measure for `C=CC(=O)N[C@H]1C[C@H](Cn2c(C#N)cc3c(C)c(CN4CCC(Nc5ncnc6sc(CC(F)(F)F)cc56)CC4)ccc32)C1` [Compound 30]: 50 to 250 nM; for `Cc1c(CN2CCC(Nc3ncnc4sc(CC(F)(F)F)cc34)CC2)ccc2c1cc(C#N)n2CC12CC(N)(C1)C2` [Compound 13]: 50 to 250 nM.
For the molecule `Cc1c(CN2CCC(Nc3ncnc4sc(CC(F)(F)F)cc34)CC2)ccc2c1cc(C#N)n2CC12CC(NC(=O)c3ccc[nH]3)(C1)C2` [Compound 34], the IC50 was 50 to 250 nM.
In the case of `Cc1c(CN2CCC(Nc3ncnc4sc(CC(F)(F)F)cc34)CC2)ccc2c1cc(C#N)n2CC12CC(NC(=O)C3CCCN3C)(C1)C2` (centres unmarked) [Compound 58] it was less than 50 nM.
The same measure for `Cc1c(CN2CCC(Nc3ncnc4sc(CC(F)(F)F)cc34)CC2)ccc2c1cc(C#N)n2CC12CC(NC(=O)C3CC3)(C1)C2` [Compound 9]: 50 to 250 nM; for `Cc1c(CN2CCC(Nc3ncnc4sc(CC(F)(F)F)cc34)CC2)ccc2c1cc(C#N)n2CC12CC(NC(=O)C(N)C(C)C)(C1)C2` (centres unmarked) [Compound 62]: less than 50 nM; for `Cc1c(CN2CCC(Nc3ncnc4sc(CC(F)(F)F)cc34)CC2)ccc2c1cc(C#N)n2CC12CC(NC(=O)Cc3cccc(N)c3)(C1)C2` [Compound 78]: 250 to 1000 nM.
Turning to `Cc1c(CN2CCC(Nc3ncnc4sc(CC(F)(F)F)cc34)CC2)ccc2c1cc(C#N)n2CC12CC(NC(=O)C(C)N)(C1)C2` (centres unmarked) [Compound 64], the IC50 was less than 50 nM.
In the case of `Cc1c(CN2CCC(Nc3ncnc4sc(CC(F)(F)F)cc34)CC2)ccc2c1cc(C#N)n2CCC12CC(N)(C1)C2` [Compound 11] it was 250 to 1000 nM; in that of `Cc1c(CN2CCC(Nc3ncnc4sc(CC(F)(F)F)cc34)CC2)ccc2c1cc(C#N)n2CC12CC(NC(=O)CN3CCOCC3)(C1)C2` [Compound 56], less than 50 nM; in that of `Cc1c(CN2CCC(Nc3ncnc4sc(CC(F)(F)F)cc34)CC2)ccc2c1cc(C#N)n2CC12CC(NC(=O)C(C)(C)O)(C1)C2` [Compound 63], 50 to 250 nM.
In the case of `CNC(=O)NC12CC(Cn3c(C#N)cc4c(C)c(CN5CCC(Nc6ncnc7sc(CC(F)(F)F)cc67)CC5)ccc43)(C1)C2` [Compound 7] it was less than 50 nM.
In the case of `Cc1c(CN2CCC(Nc3ncnc4sc(CC(F)(F)F)cc34)CC2)ccc2c1cc(C#N)n2CC12CC(NC(=O)C(N)C(F)(F)F)(C1)C2` (centres unmarked) [Compound 69] it was 250 to 1000 nM.
On to `Cc1c(CN2CCC(Nc3ncnc4sc(CC(F)(F)F)cc34)CC2)ccc2c1cc(C#N)n2CC12CC(NC(=O)C(N)c3ccccc3)(C1)C2` (centres unmarked) [Compound 65], for which the IC50 was less than 50 nM.
Turning to `CCC(=O)NC12CC(Cn3c(C#N)cc4cc(CN5CCC(Nc6ncnc7sc(CC(F)(F)F)cc67)CC5)c(O)cc43)(C1)C2` [Compound 75], the IC50 lay within 50 to 250 nM.
As to `Cc1c(CN2CCC(Nc3ncnc4sc(CC(F)(F)F)cc34)CC2)ccc2c1cc(C#N)n2CC12CC(NC(=O)CNC3CC3)(C1)C2` [Compound 42], the IC50 fell in the range of 50 to 250 nM.
Regarding `Cc1c(CN2CCC(Nc3ncnc4sc(CC(F)(F)F)cc34)CC2)ccc2c1cc(C#N)n2CC12CC(N(C)C)(C1)C2` [Compound 5], the IC50 was in the range of 250 to 1000 nM.
The same measure for `CNc1nc(NC2CCN(Cc3ccc4c(cc(C#N)n4CC45CC(NC=O)(C4)C5)c3C)CC2)c2cc(CC(F)(F)F)sc2n1` [Compound 85]: less than 50 nM; for `Cc1c(CN2CCC(Nc3ncnc4sc(CC(F)(F)F)cc34)CC2)ccc2c1cc(C#N)n2CC12CC(NC(=O)C(C)C)(C1)C2` [Compound 8]: 50 to 250 nM; for `Cc1c(CN2CCC(Nc3ncnc4sc(CC(F)(F)F)cc34)CC2)ccc2c1cc(C#N)n2CC12CC(NC(=O)CN)(C1)C2` (single isomer, unassigned) [Compound 61]: 250 to 1000 nM.
For `COCC(=O)NC12CC(Cn3c(C#N)cc4c(C)c(CN5CCC(Nc6ncnc7sc(CC(F)(F)F)cc67)CC5)ccc43)(C1)C2` [Compound 43], the IC50 fell in the range of 50 to 250 nM.
In the case of `CNC(CO)C(=O)NC12CC(Cn3c(C#N)cc4c(C)c(CN5CCC(Nc6ncnc7sc(CC(F)(F)F)cc67)CC5)ccc43)(C1)C2` (centres unmarked) [Compound 76] it was less than 50 nM; in that of `Cc1c(CN2CCC(Nc3ncnc4sc(CC(F)(F)F)cc34)CC2)ccc2c1cc(C#N)n2CC12CC(NC(=O)CN3CCCC3)(C1)C2` [Compound 57], less than 50 nM; in that of `Cc1c(CN2CCC(Nc3ncnc4sc(CC(F)(F)F)cc34)CC2)ccc2c1cc(C#N)n2CC12CC(NC(=O)Cc3ccccc3)(C1)C2` [Compound 77], 250 to 1000 nM.
As to `Cc1c(CN2CCC(Nc3ncnc4sc(CC(F)(F)F)cc34)CC2)ccc2c1cc(C#N)n2CC12CC(NC(=O)CNS(C)(=O)=O)(C1)C2` [Compound 36], the IC50 fell in the range of 50 to 250 nM.
In the case of `Cc1c(CN2CCC(Nc3ncnc4sc(CC(F)(F)F)cc34)CC2)ccc2c1cc(C#N)n2CC12CC(NC(=O)C(O)CO)(C1)C2` (centres unmarked) [Compound 67] it was 50 to 250 nM.
For the molecule `Cc1c(CN2CCC(Nc3ncnc4sc(CC(F)(F)F)cc34)CC2)ccc2c1cc(C#N)n2CC12CC(NC(=O)C3(O)CC3)(C1)C2` [Compound 68], the IC50 was in the range of 50 to 250 nM.
With `CCCCC(NC)C(=O)NC12CC(Cn3c(C#N)cc4c(C)c(CN5CCC(Nc6ncnc7sc(CC(F)(F)F)cc67)CC5)ccc43)(C1)C2` (centres unmarked) [Compound 73], the IC50 lay within 50 to 250 nM.
The same measure for `CNC(=O)C12CC(Cn3c(C#N)cc4c(C)c(CN5CCC(Nc6ncnc7sc(CC(F)(F)F)cc67)CC5)ccc43)(C1)C2` [Compound 18]: 50 to 250 nM.
As for `Cc1c(CN2CCC(Nc3ncnc4sc(CC(F)(F)F)cc34)CC2)ccc2c1cc(C#N)n2CC12CC(NC(=O)CN)(C1)C2` [Compound 17], the IC50 is less than 50 nM.
In the case of `Cc1c(CN2CCC(Nc3ncnc4sc(CC(F)(F)F)cc34)CC2)ccc2c1cc(C#N)n2CC12CC(NC(=O)C3(N)CC3)(C1)C2` [Compound 60] it was 50 to 250 nM.
The same measure for `CNc1nc(NC2CCN(Cc3ccc4c(cc(C#N)n4CC45CC(NC(=O)Cc6ccccc6N)(C4)C5)c3C)CC2)c2cc(CC(F)(F)F)sc2n1` [Compound 80]: less than 50 nM; for `Cc1c(CN2CCC(Nc3ncnc4sc(CC(F)(F)F)cc34)CC2)ccc2c1cc(C#N)n2CC12CC(NC(=O)C(N)CC(F)(F)F)(C1)C2` (centres unmarked) [Compound 74]: 250 to 1000 nM.
On to `CC(=O)N[C@H]1C[C@@H](Cn2c(C#N)cc3c(C)c(CN4CCC(Nc5ncnc6sc(CC(F)(F)F)cc56)CC4)ccc32)C1` [Compound 31], for which the IC50 lay within 250 to 1000 nM.
The same measure for `Cc1c(CN2CCC(Nc3ncnc4sc(CC(F)(F)F)cc34)CC2)ccc2c1cc(C#N)n2CC12CC(NC(=O)C3CCCN3)(C1)C2` (centres unmarked) [Compound 41]: less than 50 nM; for `CCCCC(N)C(=O)NC12CC(Cn3c(C#N)cc4c(C)c(CN5CCC(Nc6ncnc7sc(CC(F)(F)F)cc67)CC5)ccc43)(C1)C2` (centres unmarked) [Compound 72]: 50 to 250 nM; for `Cc1c(CN2CCC(Nc3ncnc4sc(CC(F)(F)F)cc34)CC2)ccc2c1cc(C#N)n2CC12CC(NC(=O)c3cccc(=O)[nH]3)(C1)C2` [Compound 35]: less than 50 nM.

For orientation: IC50 means the concentration at which inhibition is half-maximal.
